Laboratory results reported in PubChem BioAssay AID179 (DTP/NCI, 2004).
Calls of active or inactive are those of the source.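 How the source made its calls: active means compounds giving half or more protection of infected cells from virus-caused growth loss, again on retest; inactive means the rest.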 Where a SMILES comes first, the peptide text is derived from it. [ ]: non-standard residue; d: D form. The star is where a group is joined. ξ: configuration not given here. ξF = NC(Cc1ccccc1)C(=O)O; Cbz = O=C(OCc1ccccc1)*; Aib = CC(C)(N)C(=O)O; NHNH2 = NN*

System: CEM cells HIV-1 protection, formazan growth assay
Experiment: NCI AIDS Antiviral Assay
Conditions: for IC50: measured here: growth of uninfected CEM cells
Summary of the method: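 CEM (human) cells, HIV-1 infected vs uninfected, 5-point dosing, formazan growth read-out. Retest threshold 50% protection.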

CC(C)(C)[Si](C)(C)OCc1cccc(OCCOc2cccc(CO[Si](C)(C)C(C)(C)C)c2[N+](=O)[O-])c1[N+](=O)[O-]
EC50: > 50.1 µM
IC50: > 50.1 µM

O=C1NCC2=C1CCC1c3ccccc3CCN21 (stereo not drawn)
EC50: > 200 µM
IC50: > 200 µM

N#CCN1CCOCCOCCN(CC#N)CCOCCOCC1
outcome: inactive

O=C1N(c2ccccc2)C(=O)C2(SC=NN2Cc2ccccc2)N1c1ccccc1 (stereo not drawn)
outcome: inactive

CC1=C(C(=O)Nc2ccccc2)C(c2ccc(C)o2)C(C#N)=C(SCc2ccccc2)N1 (stereo not drawn)
EC50: > 200 µM
IC50: 24 µM

CC1CCC2(OCCO2)[C@]2(C)CC(O)C(=O)C=C12 (stereo partly drawn)
outcome: inactive

COC(=O)C(=O)C(/C=N/C(=S)NCCc1ccc(OC)c(OC)c1)=C(/O)c1ccc([N+](=O)[O-])cc1
EC50: > 100 µM
IC50: > 100 µM

c1ccc2c3csc4ccccc4c-3nc2c1
outcome: inactive

N#C/C(C(=O)Nc1ccc(Cl)cc1)=C(/N)N1CCOCC1
EC50: > 200 µM
IC50: > 200 µM

COc1ccc2c(c1[N+](=O)[O-])CC[C@@H]1[C@@H]2CC[C@]2(C)C(=O)CC[C@@H]12
EC50: > 11 µM
IC50: > 11 µM

CC(=O)N(CCc1ccccc1)C(C)(C#N)c1ccccc1 (stereo not drawn)
EC50: > 200 µM
IC50: > 200 µM

O=c1[nH]c(=O)n(C2CC(O)C(CO)O2)cc1COCC(F)(F)F (stereo not drawn)
EC50: > 251 µM
IC50: > 251 µM

CCOC(=O)c1c(NC(=O)C(F)(F)F)[nH]c(SSc2[nH]c(NC(=O)C(F)(F)F)c(C(=O)OCC)c2C(=O)OCC)c1C(=O)OCC
EC50: > 89.1 µM
IC50: 4.27 µM

CC1=C(/C=C/C(C)=C/C=C/C(C)=C/C=O)C(C)(C)CCC1
outcome: inactive

O=S(=O)(O)c1ccc(OCCCCCCCCCCOc2ccc(S(=O)(=O)O)cc2)cc1
EC50: > 25.7 µM
IC50: > 25.7 µM

c1cc2c3ccsc3c3sccc3c2s1
EC50: > 200 µM
IC50: > 200 µM

C=CCN1CCC(C(=O)CC)(c2ccccc2)CC1
EC50: > 355 µM
IC50: 166 µM

COC1C(O)C(n2ccc(=O)[nH]c2=O)OC1[C@@H](O[C@H]1OC(C(=O)NC2CCCCNC2=O)=CC(O)C1O)C(N)=O (stereo partly drawn)
outcome: inactive

CNC(=O)OC(C)CN1c2ccccc2Sc2ccc(Cl)cc21 (stereo not drawn)
EC50: > 200 µM
IC50: 26.9 µM

CCSCCCCCCCCCCCC(=O)OCC1OC(n2cc(C)c(=O)[nH]c2=O)CC1F (stereo not drawn)
EC50: 0.0158 µM
IC50: 2 µM

CC1(C)CC(O)C(C)(C)[C@@H](O)C1 (stereo partly drawn)
outcome: inactive

CCCc1cc(=O)oc2c3c(c4c(c12)OC(C)(C)C=C4)O[C@H](C)[C@@H](C)C3O (stereo partly drawn)
EC50: 2.4 µM
IC50: 11.7 µM

C/C(=N\NC(=O)CC#N)C(CN1CCCCC1)C(c1ccccc1)c1c(O)c2ccccc2oc1=O (stereo not drawn)
EC50: > 70.8 µM
IC50: 40.7 µM

Nc1cc(N)c(N=Nc2ccc(/C=C\c3ccc(N=Nc4c(N)cc(N)cc4C(=O)O)cc3S(=O)(=O)O)c(S(=O)(=O)O)c2)c(C(=O)O)c1.[Zn+2]
EC50: > 30.2 µM
IC50: 23.4 µM

CC(C)(NC(=O)OCc1ccccc1)C(=O)NC(Cc1ccccc1)C(=O)NN (stereo not drawn) (Cbz-[Aib]-[ξF]-NHNH2)
EC50: > 200 µM
IC50: > 200 µM

CCOC(=O)C1(N=O)CCCCC1=O (stereo not drawn)
EC50: > 200 µM
IC50: > 200 µM

Cc1ccc(-n2c(C)n[nH]c2=O)cc1
EC50: > 200 µM
IC50: > 200 µM

Nc1c(C(=O)O)c2nc3c(CO)cccc3oc-2cc1=O
EC50: > 200 µM
IC50: 2.14 µM

O[C@H]1[C@H](O)[C@@H](Cn2nnc(-c3ccccc3)c2-c2ccccc2)OCO[C@@H]1Cn1nnc(-c2ccccc2)c1-c1ccccc1
EC50: > 200 µM
IC50: 9.55 µM

COCc1cn(C2CCC(CO)O2)c(=O)nc1N (stereo not drawn)
EC50: > 490 µM
IC50: > 490 µM

O=[N+]([O-])c1ccc2c(c1)nc1n2C(c2c(F)cccc2F)SC1 (stereo not drawn)
EC50: 186 µM
IC50: 195 µM

O=c1[nH]c(Nc2nc3ccccc3[nH]2)nc2c1CCC2
EC50: > 200 µM
IC50: > 200 µM

O=C(O)c1ccccc1-c1c2cc(I)c(=O)c(I)c-2oc2c(I)c(O)c(I)cc12
EC50: > 58.9 µM
IC50: 10.7 µM

COC(=O)c1cc2ccccc2c2nc3ccccc3c(Cl)c12
EC50: > 8.13 µM
IC50: > 8.13 µM

O=[N+]([O-])c1cc(C(F)(F)F)ccc1S(=O)(=O)N[C@@H]1CCCC[C@H]1NS(=O)(=O)c1ccc(C(F)(F)F)cc1[N+](=O)[O-]
EC50: > 200 µM
IC50: 3.98 µM

COc1cc(C2c3cc4c(cc3OC(N3CCCC3)C2C)OCO4)cc(OC)c1O (stereo not drawn)
EC50: > 200 µM
IC50: 6.03 µM

CCc1c(O)c(O)c(C(C)=O)c2c(O)c(-c3c(C)cc4c(CC)c(O)c(O)c(C(C)=O)c4c3O)c(C)cc12
EC50: > 69.2 µM
IC50: 2.24 µM

CN(C)[C@@H]1C(=O)C(C(=O)NCNCCCC(=O)O)=C(O)[C@@]2(O)C(=O)C3=C(O)c4c(O)cccc4[C@@](C)(O)[C@H]3C[C@@H]12
EC50: > 1.78 µM
IC50: > 1.78 µM

O=c1[nH]nc(-c2ccc([N+](=O)[O-])cc2)n1/N=C/c1ccc([N+](=O)[O-])cc1
EC50: > 200 µM
IC50: 132 µM

CN(C)c1ccc(/C=C(\NC(=O)c2ccccc2)c2nc3ccccc3c(=O)o2)cc1
EC50: > 100 µM
IC50: > 100 µM

O=C(NNC(=S)NC1CCCCC1)c1csc(NC(=S)NC2CCCCC2)n1
EC50: > 20 µM
IC50: 1.86 µM

CCOC(=O)C12C(C(=O)O)=C(N)CN1CCc1c2[nH]c2ccccc12 (stereo not drawn)
EC50: > 58.9 µM
IC50: > 58.9 µM

CC(=O)NNC(=S)/N=C/c1c(O)cc(C)oc1=O
EC50: > 200 µM
IC50: > 200 µM

CSc1nc2c(=S)[nH]c(=S)[nH]c2s1
EC50: > 105 µM
IC50: > 105 µM

CC(C)CCCC(C)[C@H]1CC[C@H]2[C@@H]3CC[C@H]4C[C@@H](CCC=C(c5cc(Cl)c(O)c(C(=O)O)c5)c5cc(Cl)c(O)c(C(=O)O)c5)CC[C@]4(C)[C@H]3CC[C@]12C (stereo partly drawn)
EC50: 60.3 µM
IC50: 129 µM

CC(=O)OC1CC2C(C)(C)CCCC2(C)C2C(=O)C(O)=C(C(C)C)C(=O)C12 (stereo not drawn)
EC50: > 200 µM
IC50: 2.82 µM

O=C(O)C1=C(C(=O)Nc2ccccc2)C2C=CC1C2 (stereo not drawn)
EC50: > 977 µM
IC50: 214 µM

COc1cc(C2c3cc4c(cc3OC3(OC)COC(=O)C23)OCO4)cc(OC)c1OC(C)=O (stereo not drawn)
EC50: > 100 µM
IC50: 0.562 µM

CC(=O)OC[C@]12CCC3[C@@]4(C)CCCC(C)(C)C4CC[C@@]3(C)C1CC(C1=CC(=O)OC1O)O2 (stereo partly drawn)
EC50: > 200 µM
IC50: 0.759 µM

Cc1ccsc1C(=S)Nc1ccc(Cl)c(C(=O)OC(C(C)C)C(C)C)c1
EC50: 0.309 µM
IC50: 21.4 µM

O=C(NNC(=O)c1cccc(C(=O)NNC(=O)c2ccc(Cl)c(Cl)c2)n1)c1ccc(Cl)c(Cl)c1
EC50: > 200 µM
IC50: 1.07 µM

COC1Nc2nc3ccccc3nc2NC1OC (stereo not drawn)
EC50: > 363 µM
IC50: 66.1 µM

C[P+](Cc1ccccc1)(c1ccccc1)c1ccccc1
EC50: 0.0631 µM
IC50: 14.5 µM

CCOC(=O)c1cn2ccccc2c(C(=O)c2cccnc2)c1=N
EC50: > 50.1 µM
IC50: > 50.1 µM

Cn1nc(-c2cccc(-c3nn(C)c(=NCCO)s3)n2)sc1=NCCO
EC50: > 200 µM
IC50: > 200 µM

COC(=O)c1cc(C(=O)OC)c(CC(=O)C(=O)NC2C3CC4CC(C3)CC2C4)nc1CC(=O)C(=O)NC1C2CC3CC(C2)CC1C3 (stereo not drawn)
EC50: > 282 µM
IC50: > 282 µM

CCNC(=S)NCCc1c[nH]c2ccccc12
EC50: > 200 µM
IC50: 186 µM

COc1ccc(C2C3=C(COC3=O)OC(C)(C)Oc3cc4c(cc32)OCO4)cc1OC (stereo not drawn)
EC50: > 200 µM
IC50: 12.3 µM

CC(=O)N(C(=O)CC(=O)N1N=C(c2ccccc2)C(N=Nc2ccccc2[N+](=O)[O-])C1=O)c1ccc(Cl)cc1 (stereo not drawn)
EC50: 166 µM
IC50: > 200 µM

N#CCN1C(=O)c2cc([N+](=O)[O-])cc3cc([N+](=O)[O-])cc(c23)C1=O
outcome: inactive

Nc1cc(CO)cc(Nc2c3ccccc3nc3ccccc23)c1
EC50: > 2 µM
IC50: 0.347 µM

CCOc1ccc(/C(O)=C/c2nc3ccccc3nc2/C=C(\O)c2ccc(OCC)cc2)cc1
EC50: > 100 µM
IC50: > 100 µM

CCOC(=O)Nc1cc2nnc(-c3ccccc3)nc2c(N)n1
outcome: inactive

C/C(=C1/N=C(c2cc([N+](=O)[O-])ccc2Cl)N(c2ccc(Br)cc2)C1=O)c1ccc(N(CCC#N)CCC#N)cc1C
EC50: > 11.5 µM
IC50: > 11.5 µM

Oc1cc(N2CCCC2)ccc1/C=N/N1C(=S)N(c2ccccc2)C(=Nc2ccccc2)C1=Nc1ccccc1
EC50: > 100 µM
IC50: > 100 µM

CN1CC(C(=O)C2C(=O)c3ccccc3C2=O)C(=O)C(=O)C(C(=O)C2C(=O)c3ccccc3C2=O)C1 (stereo not drawn)
outcome: inactive

O=C(O)c1cc(Cl)cc(NC(=O)C(Cl)Cl)c1Cl
EC50: > 794 µM
IC50: 617 µM

Cc1[nH]c(N)c(C#N)c1Cc1ccccc1
EC50: > 200 µM
IC50: > 200 µM

C/C(=C\C(=O)c1ccc(Sc2ccccc2)cc1)c1ccc(Sc2ccccc2)cc1
EC50: > 200 µM
IC50: 102 µM

COc1ccc(C2=C/C(=C3/C(=O)C=C(C)OC3=O)SS2)cc1
EC50: > 100 µM
IC50: > 100 µM

COC(O)C(=O)c1c2c(cc3c1CC1(Cc4cc5c(cc4C1)CCC5)C3)CCC2 (stereo not drawn)
EC50: > 200 µM
IC50: 33.1 µM

CCc1cccc(NC(=O)c2cc(/C=C/c3ccccc3)[nH]c(=S)n2)c1
EC50: > 347 µM
IC50: > 347 µM

CNC(=O)N(CCC#N)CCN(C(=O)N(C)C)c1ccccc1
EC50: > 200 µM
IC50: > 200 µM

N=C1C=C/[N+](=C\C=CCO)C([O-])=N1
outcome: active

COc1cc(C(c2cc(OC)c(OC)c(OC)c2)N2C(=O)CCC2C(=O)O)cc(OC)c1OC (stereo not drawn)
EC50: > 200 µM
IC50: > 200 µM

O=C(CNc1c(Cl)cccc1Cl)NC1C=Cc2ccc(S(=O)(=O)Nc3c(Cl)cccc3Cl)cc2C1=O (stereo not drawn)
EC50: > 200 µM
IC50: 123 µM

CC(C)(Cc1ccccc1)Cc1cc(O)ccc1O
EC50: 1.29 µM
IC50: 7.24 µM

CN(C)CCc1ccc(Cl)cc1Cl
EC50: > 977 µM
IC50: 407 µM

O=C1N[C@@H]2CCC[C@@H]2[C@@H]1c1ccc(Cl)cc1
EC50: > 380 µM
IC50: 155 µM

O=C(CCn1ccnc1[N+](=O)[O-])NCCCn1ccnc1[N+](=O)[O-]
EC50: > 200 µM
IC50: > 200 µM

COc1cc2c(c(OC)c1)C(C)=NC(C)C2 (stereo not drawn)
EC50: > 200 µM
IC50: 141 µM

CCOC(=O)N1CCC(=O)C(CNC23CC4CC(CC(C4)C2)C3)C1 (stereo not drawn)
EC50: > 4170 µM
IC50: 204 µM
